Molecular target: T1, chymotrypsin-like activity of the proteasome (Mus musculus, UniProt O55234)
T1 construct: measurement of proteasome activity in whole blood (primarily erythrocytes); from tissue; host or cells: whole blood (primarily erythrocytes), adrenal, liver and heart of BALB/C mice
T1 sequence (O55234 60-264): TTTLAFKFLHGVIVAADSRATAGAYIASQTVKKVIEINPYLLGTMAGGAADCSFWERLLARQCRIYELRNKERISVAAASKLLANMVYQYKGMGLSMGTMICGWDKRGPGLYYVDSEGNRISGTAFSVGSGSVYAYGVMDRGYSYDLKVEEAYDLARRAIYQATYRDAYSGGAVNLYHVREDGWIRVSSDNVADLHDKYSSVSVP
Experiment: Pharmacodynamic response: proteasome activity in whole blood, adrenal, liver and heart (LLVY-AMC substrate)
Format: in vivo, BALB/C mice
Conditions: mice, single i.v. dose, whole blood (primarily erythrocytes), up to 24 hours
Procedure: The pharmacodynamic response of carfilzomib formulated in SBE-B-CD (CFZ SBE-B-CD) (using a non-liposomal, injectable composition of carfilzomib formulated in 10% sulfobutylether beta cyclodextrin (SBE-B-CD), 10 mM Citrate, pH 3.5 (see, e.g., U.S. Patent Publication Nos. 2011/0236428)), empty liposomes (Composition D), liposomes comprising CFZ (L-CFZ, Composition C), and pegylated liposomes comprising (pL-CFZ, Composition E) was evaluated in BALB/C mice following a single intravenous bolus administration.
The mice (three mice per time point) were administered a dose of 10 mg/kg in a dose volume of 5 mL/kg. […] The pharmacodynamic response was determined by measurement of proteasome activity in whole blood (primarily erythrocytes) (see FIG. 2A), adrenal (see FIG. 2B), liver (see FIG. 2C), and heart (see FIG. 2D), using a fluorogenic substrate (LLVY-AMC [Leu-Leu-Val-Tyr-AMC {AMC=7-amido 4-methylcoumarin}]; as described by Lightcap E S, McCormack T A, Pien C S, et al., Clin. Chem. 46:673-683 (2000)) to quantitate the chymotrypsin-like activity of the proteasome. […] Three tissue samples were evaluated per time point for each tissue from each mouse.
The pharmacodynamic response of liposomal compositions comprising liposomes comprising an aqueous core loaded with CFZ complexed with SBE-B-CD was evaluated in BALB/C mice following a single intravenous bolus administration. […]

CC(C)C[C@H](NC(=O)[C@H](CCc1ccccc1)NC(=O)CN1CCOCC1)C(=O)N[C@@H](Cc1ccccc1)C(=O)N[C@@H](CC(C)C)C(=O)[C@@]1(C)CO1 [carfilzomib]
recovery of proteasome activity in blood: no recovery
